Results on one compound are retold here after patent publication US12690586B2, “Herbicidal malonamides” (BASF SE, priority 2020, dated 2026).

Test in all cases: greenhouse post-emergence herbicidal test
Holding throughout (assay type): in vivo
Holding throughout (details): post-emergence method, application rate 0.125 kg/ha; scale 0 to 100

Assay [1] relates to Abutilon theophrasti (ABUTH). The source says: (§1) The culture containers used were plastic flowerpots containing loamy sand with approximately 3.0% of humus as the substrate. The seeds of the test plants were sown separately for each species.
(§2) For the pre-emergence treatment, the active ingredients, which had been suspended or emulsified in water, were applied directly after sowing by means of finely distributing nozzles. The containers were irrigated gently to promote germination and growth and subsequently covered with transparent plastic hoods until the test plants had rooted. This cover caused uniform germination of the test plants, unless this had been impaired by the active ingredients. For the post-emergence treatment, the test plants were first grown to a height of 3 to 15 cm, depending on the plant habit, and only then treated with the active ingredients which had been suspended or emulsified in water. For this purpose, the test plants were either sown directly and grown in the same containers, or they were first grown separately as seedlings and transplanted into the test containers a few days prior to treatment.
(§3) Depending on the species, the test plants were kept at 10-25° C. or 20-35° C., respectively. The test period extended over 2 to 4 weeks. During this time, the test plants were tended, and their response to the individual treatments was evaluated.
(§4) Evaluation was carried out using a scale from 0 to 100. 100 means no emergence of the test plants, or complete destruction of at least the aerial moieties, and 0 means no damage, or normal course of growth. A good herbicidal activity is given at values of 65 to 90 and a very good herbicidal activity is given at values of 90 to 100.
(§5) The test plants used in the greenhouse experiments were of the following species: […]

Assay [2] relates to Alopecurus myosuroides (ALOMY).
Source text: as §1, §2, §3, §4, §5

For the next assay, the system named is Avena fatua (AVEFA).
Source text: as §1, §2, §3, §4, §5

Consider `COC(=O)[C@@H]1C=C[C@H](NC(=O)C2(C(=O)Nc3cc(F)cc(F)c3)CC2)C1` [I.2, methyl (1S,4R)-4-{1-[(3,5-difluorophenyl)carbamoyl]cyclopropaneamido}cyclopent-2-ene-1-carboxylate], for which the “herbicidal activity against ABUTH” value in assay [1] was “good (A good herbicidal activity is given at values of 65 to 90)”. In addition, the “herbicidal activity against ALOMY” value in assay [2] is listed as “very good (a very good herbicidal activity is given at values of 90 to 100)”. In addition, the “herbicidal activity against AVEFA” value in the assay on Avena fatua (AVEFA) is on record as “very good (a very good herbicidal activity is given at values of 90 to 100)”.
